The numbers were not newly measured in US20180193304A1, “PHYTOTERPENOID FACILITATION OF THERAPEUTIC ONSET AND EFFICACY OF SUBLINGUAL CANNABINOID ADMINISTRATION” (JC Pharma Inc., priority 2017, published 2018), which cites them from elsewhere.

Data set [1] has as its system inflammation. To be noted: compared to steroid alternatives.
In data set [2] the test system is inflammation. The following applies: mouse, in vivo.
Data set [3] concerns experimental airways allergic inflammation. To be noted: oral.
Data set [4] addresses T1, CB2 receptor (Homo sapiens, UniProt P34972).
Data set [5] addresses T1, CB2 receptor. The source holds these as a separate data set.

T1 sequence (P34972 whole entry): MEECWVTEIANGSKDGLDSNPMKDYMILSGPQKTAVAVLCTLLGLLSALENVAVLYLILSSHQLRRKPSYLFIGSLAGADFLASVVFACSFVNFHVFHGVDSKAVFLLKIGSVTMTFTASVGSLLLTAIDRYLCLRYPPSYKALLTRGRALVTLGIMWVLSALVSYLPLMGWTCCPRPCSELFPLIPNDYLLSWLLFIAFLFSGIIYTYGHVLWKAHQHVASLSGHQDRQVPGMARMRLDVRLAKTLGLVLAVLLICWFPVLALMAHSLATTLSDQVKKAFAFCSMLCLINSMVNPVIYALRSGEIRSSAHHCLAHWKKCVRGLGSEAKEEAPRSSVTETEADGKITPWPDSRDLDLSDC

Take `C/C1=C\CC/C(C)=C/CC(C)(C)/C=C/C1` [humulene]: the anti-inflammatory response result with inflammation [1] is “comparable anti-inflammatory responses to steroid alternatives”. Moreover, the “reduction of inflammation and pain relief” value with inflammation [2] is “effective in reducing inflammation and offering pain relief”. The reduction of inflammation result in data set [3] is “highly effective at reducing inflammation”.

As for `C=C1CC/C=C(\C)CC[C@@H]2[C@@H]1CC2(C)C` [β-caryophyllene], the anti-inflammatory response entry in the data set on inflammation [1] is “comparable anti-inflammatory responses to steroid alternatives”. The “functional activity at CB2 receptor” value on CB2 receptor [4] is given as “functional CB2 agonist”. The “binding to the CB2 receptor” value on CB2 receptor [5] is listed as “selectively binds to the CB2 receptor”.
